The values that follow come from ChEMBL document CHEMBL6153050, “Repurposing FDA-approved drugs to target G-quadruplexes in breast cancer” (Eur J Med Chem, 2025).

Calls of active or inactive are those of the source. The calls are words filed in the database; no cut-off is given here.

The test system of assay [1] is Quadruplex DNA. To be noted: time 10.0 min.
For assay [2], the system named is Quadruplex DNA. To be noted: time 10.0 min. The source holds these as a separate data set.
In assay [3] the test system is Quadruplex DNA. The note with it: time 10.0 min. The source holds these as a separate data set.
In assay [4] the test system is Quadruplex DNA. The note with it: time 10.0 min. The source holds these as a separate data set.
In assay [5] the test system is Quadruplex RNA. To be noted: time 10.0 min.
The subject of assay [6] is MCF7. The assay is described as follows: Cytotoxicity against human MCF7 cells assessed as reduction in cell viability at 0.625 to 20 uM incubated for 6 days by SRB assay. The format is functional, cell-based. The note with it: dose 0.625-20 µM, time 6.0 day.
For assay [7], the system named is Quadruplex RNA. The note with it: time 10.0 min. This is another data set of the same source.
Assay [8] has as its system SK-BR-3. The assay is described as follows: Cytotoxicity against human SK-BR-3 cells assessed as reduction in cell viability at 0.625 to 20 uM incubated for 6 days by SRB assay. The format is functional, cell-based. The note with it: dose 0.625-20 µM, time 6.0 day. For orientation: The SRB assay estimates cell density from bound dye.
Assay [9] concerns MCF7. Put plainly: Induction of cell cycle arrest in human MCF7 cells assessed as reduction in G1 phase at IC50 concentration incubated for 6 days by PI staining based flow cytometric analysis. It is filed as functional. To be noted: time 6.0 day. A general note: A flow cytometer gives signals particle by particle.
Assay [10] has as its system Quadruplex DNA. Put plainly: Stabilization of G4 quadruplex DNA (unknown origin) in human SK-BR-3 cells assessed as increase in G4 motif at IC50 concentration incubated for 6 days by flow cytometric analysis. It is filed as cell-based. The note with it: time 6.0 day.
Assay [11] relates to Quadruplex DNA. Put plainly: Binding affinity to c-Myc G4 quadruplex DNA (TGAGGGTGGGTAGGGTGGGTAA) (unknown origin) assessed as binding enthalpy by ITC analysis. It is filed as nucleic-acid assay. On the technique in general: ITC needs no label: the signal is the heat of the interaction.
Assay [12] deals with Quadruplex DNA. Put plainly: Binding affinity to c-Myc G4 quadruplex DNA (TGAGGGTGGGTAGGGTGGGTAA) (unknown origin) assessed as Gibbs free energy by ITC analysis. It is filed as nucleic-acid assay.
Assay [13] deals with MCF7. Put plainly: Cytotoxicity against human MCF7 cells assessed as reduction in cell viability incubated for 6 days by SRB assay. It is filed as functional, cell-based. The note with it: Homo sapiens, MCF7, 144 h.
For assay [14], the system named is Quadruplex DNA. The assay is described as follows: Stabilization of G4 quadruplex DNA (unknown origin) in human MCF7 cells at IC50 concentration incubated for 6 days by flow cytometric analysis. It is filed as cell-based. The note with it: time 6.0 day.
The subject of assay [15] is SK-BR-3. Put plainly: Induction of cell cycle arrest in human SK-BR-3 cells assessed as accumulation of cells at G2/M phase at IC25 concentration incubated for 6 days by PI staining based flow cytometric analysis. The format is functional. The note with it: time 6.0 day.
In assay [16] the test system is MDA-MB-231. Put plainly: Induction of DNA damage in human MDA-MB-231 cells assessed as increase in gamma-H2AX level at IC25 concentration incubated for 6 days by flow cytometric analysis. The note with it: time 6.0 day. The format is functional, cell-based.
Assay [17] concerns SK-BR-3. Put plainly: Cytotoxicity against human SK-BR-3 cells assessed as reduction in cell viability incubated for 6 days by SRB assay. The format is functional, cell-based. The note with it: Homo sapiens, SK-BR-3, 144 h.
Assay [18] has as its system SK-BR-3. The assay is described as follows: Induction of DNA damage in human SK-BR-3 cells assessed as increase in gamma-H2AX level at IC50 concentration incubated for 6 days by flow cytometric analysis. The format is functional, cell-based. To be noted: time 6.0 day.
Assay [19] deals with Quadruplex DNA. The assay is described as follows: Binding affinity to HER2 G4 quadruplex DNA (GGAGAAGGAGGAGGTGGAGGAGGAGGG) (unknown origin) assessed as binding enthalpy by ITC analysis. The format is nucleic-acid assay.
The test system of assay [20] is Quadruplex DNA. Put plainly: Binding affinity to HER2 G4 quadruplex DNA (GGAGAAGGAGGAGGTGGAGGAGGAGGG) (unknown origin) assessed as change in entropy by ITC analysis. It is filed as nucleic-acid assay.
Assay [21] has as its system MDA-MB-231. The assay is described as follows: Induction of cell cycle arrest in human MDA-MB-231 cells assessed as reduction in G1 phase at IC50 concentration incubated for 6 days by PI staining based flow cytometric analysis. It is filed as functional. The note with it: time 6.0 day.
Assay [22] concerns MDA-MB-231. Put plainly: Cytotoxicity against human MDA-MB-231 cells assessed as reduction in cell viability incubated for 6 days by SRB assay. It is filed as functional, cell-based. The note with it: Homo sapiens, MDA-MB-231, 144 h.
In assay [23] the test system is MDA-MB-231. Put plainly: Induction of DNA damage in human MDA-MB-231 cells assessed as increase in gamma-H2AX level incubated for 6 days by flow cytometric analysis. It is filed as functional, cell-based. The note with it: time 6.0 day.
The test system of assay [24] is Quadruplex DNA. The assay is described as follows: Binding affinity to HER2 G4 quadruplex DNA (GGAGAAGGAGGAGGTGGAGGAGGAGGG) (unknown origin) assessed as equilibrium binding constant (Ka) by ITC analysis. The format is nucleic-acid assay.
Assay [25] relates to Quadruplex DNA. Put plainly: Binding affinity to HER2 G4 quadruplex DNA (GGAGAAGGAGGAGGTGGAGGAGGAGGG) (unknown origin) assessed as Gibbs free energy by ITC analysis. The format is nucleic-acid assay.
The test system of assay [26] is MCF7. Put plainly: Induction of DNA damage in human MCF7 cells assessed as increase in gamma-H2AX level at IC25 concentration incubated for 6 days by flow cytometric analysis. It is filed as functional, cell-based. To be noted: time 6.0 day.
For assay [27], the system named is Quadruplex DNA. The assay is described as follows: Binding affinity to c-Myc G4 quadruplex DNA (TGAGGGTGGGTAGGGTGGGTAA) (unknown origin) assessed as equilibrium binding constant (Ka) by ITC analysis. It is filed as nucleic-acid assay.
The test system of assay [28] is SK-BR-3. Put plainly: Induction of DNA damage in human SK-BR-3 cells assessed as increase in gamma-H2AX level at IC25 concentration incubated for 6 days by flow cytometric analysis. It is filed as functional, cell-based. To be noted: time 6.0 day.
Assay [29] deals with MCF7. The assay is described as follows: Induction of cell cycle arrest in human MCF7 cells assessed as reduction in G1 phase at IC25 concentration incubated for 6 days by PI staining based flow cytometric analysis. It is filed as functional. The note with it: time 6.0 day.
The test system of assay [30] is SK-BR-3. Put plainly: Induction of cell cycle arrest in human SK-BR-3 cells assessed as accumulation of cells at G2/M phase at IC50 concentration incubated for 6 days by PI staining based flow cytometric analysis. It is filed as functional. To be noted: time 6.0 day.
Assay [31] deals with MDA-MB-231. Put plainly: Induction of cell cycle arrest in human MDA-MB-231 cells assessed as reduction in G1 phase at IC25 concentration incubated for 6 days by PI staining based flow cytometric analysis. It is filed as functional. To be noted: time 6.0 day.
Assay [32] concerns MCF7. The assay is described as follows: Induction of DNA damage in human MCF7 cells assessed as increase in gamma-H2AX level at IC50 concentration incubated for 6 days by flow cytometric analysis. It is filed as functional, cell-based. The note with it: time 6.0 day.
Assay [33] has as its system Quadruplex DNA. The assay is described as follows: Binding affinity to c-Myc G4 quadruplex DNA (TGAGGGTGGGTAGGGTGGGTAA) (unknown origin) assessed as change in entropy by ITC analysis. It is filed as nucleic-acid assay.
The test system of assay [34] is Quadruplex DNA. Put plainly: Stabilization of G4 quadruplex DNA (unknown origin) in human MCF7 cells at IC25 concentration incubated for 6 days by flow cytometric analysis. It is filed as cell-based. The note with it: time 6.0 day.
In assay [35] the test system is MDA-MB-231. Put plainly: Induction of DNA damage in human MDA-MB-231 cells assessed as increase in gamma-H2AX level at IC50 concentration incubated for 6 days by flow cytometric analysis. The format is functional, cell-based. The note with it: time 6.0 day.
Assay [36] concerns MCF7. Put plainly: Downregulation of c-MYC protein expression in human MCF7 cells at IC50 concentration incubated for 6 days by Western blotting analysis. It is filed as functional, cell-based. The note with it: time 6.0 day.

As to `Cc1c(-c2ccccc2)oc2c(C(=O)OCCN3CCCCC3)cccc2c1=O`, the deltaTm1/2 in the assay with Quadruplex DNA [1] was 4.5 °C; with Quadruplex DNA [2] it was 4.9 °C; in the assay on Quadruplex DNA [3], 9.8 °C; in the assay on Quadruplex DNA [4] it was -2.6 °C; in the assay with Quadruplex RNA [5] it was 8.5 °C; in the assay on Quadruplex RNA [7] it was 5.6 °C. Also, the outcome with MCF7 [6] and with SK-BR-3 [8] was Active.

As usually defined, the IC50 is the concentration that gives 50% inhibition. The term IC25 denotes the concentration needed for an effect of 25%. As to `CCc1c2c(nc3ccc(OC(=O)N4CCC(N5CCCCC5)CC4)cc13)-c1cc3c(c(=O)n1C2)COC(=O)[C@]3(O)CC` [IRINOTECAN], the result with MCF7 [9], in the assay with Quadruplex DNA [10], in the assay on Quadruplex DNA [14], with SK-BR-3 [15], in the assay with MDA-MB-231 [16] and in the assay on MDA-MB-231 [21] was Active. Moreover, the outcome in the assay on MCF7 [29], in the assay on SK-BR-3 [30], in the assay on MDA-MB-231 [31], in the assay with Quadruplex DNA [34], with MDA-MB-231 [35] and with MCF7 [36] was Active. The deltaTm1/2 in the assay on Quadruplex DNA [1] was 19 °C; in the assay with Quadruplex DNA [2] it was 14.8 °C; with Quadruplex DNA [3] it was 19.6 °C; in the assay on Quadruplex DNA [4] it was 8.7 °C; in the assay on Quadruplex RNA [5], over 20 °C; in the assay on Quadruplex RNA [7], 6.6 °C. Moreover, the deltaH is -1.86 kcal/mol in the assay with Quadruplex DNA [11] and -5.4 kcal/mol with Quadruplex DNA [19]. Besides, the results for the deltaG with Quadruplex DNA [12] and with Quadruplex DNA [25] were -7.07 kcal/mol and -7.29 kcal/mol, respectively. Moreover, the values for the IC50 with MCF7 [13], in the assay with SK-BR-3 [17] and in the assay on MDA-MB-231 [22] were 480 nM, 500 nM and 1600 nM, respectively. Further, the IC25 is 280 nM with MCF7 [13] (time 6 day, read-out: IC25); 360 nM in the assay on SK-BR-3 [17] (time 6 day, read-out: IC25); 1100 nM in the assay on MDA-MB-231 [22] (time 6 day, read-out: IC25). The Activity result in the assay with SK-BR-3 [18] is “Active; Slightly Lower Dna Damage Observed”; with MDA-MB-231 [23] it was “Dose-dependent-effect”; in the assay with MCF7 [26], “Active; Slightly Lower Dna Damage Observed”; in the assay on SK-BR-3 [28], “Active; Slightly Lower Dna Damage Observed”; in the assay on MCF7 [32], “Active; Slightly Lower Dna Damage Observed”. The values for the TdeltaS in the assay on Quadruplex DNA [20] and in the assay with Quadruplex DNA [33] were 1.89 kcal/mol and 5.21 kcal/mol, respectively. In addition, the Ka in the assay on Quadruplex DNA [24] is 2.2 10^5/M; in the assay with Quadruplex DNA [27], 1.5 10^5/M.
